For 13 molecules, IC50 and Ki results are on record in ChEMBL document CHEMBL1131412, “N-[2-[4-(4-Chlorophenyl)piperazin-1-yl]ethyl]-3-methoxybenzamide: a potent and selective dopamine D4 ligand” (J Med Chem, 1998).

Molecules are shown by their SMILES.

One experiment concerns the target T1, D(4) dopamine receptor (Homo sapiens, UniProt P21917).
T1 sequence (P21917 whole entry): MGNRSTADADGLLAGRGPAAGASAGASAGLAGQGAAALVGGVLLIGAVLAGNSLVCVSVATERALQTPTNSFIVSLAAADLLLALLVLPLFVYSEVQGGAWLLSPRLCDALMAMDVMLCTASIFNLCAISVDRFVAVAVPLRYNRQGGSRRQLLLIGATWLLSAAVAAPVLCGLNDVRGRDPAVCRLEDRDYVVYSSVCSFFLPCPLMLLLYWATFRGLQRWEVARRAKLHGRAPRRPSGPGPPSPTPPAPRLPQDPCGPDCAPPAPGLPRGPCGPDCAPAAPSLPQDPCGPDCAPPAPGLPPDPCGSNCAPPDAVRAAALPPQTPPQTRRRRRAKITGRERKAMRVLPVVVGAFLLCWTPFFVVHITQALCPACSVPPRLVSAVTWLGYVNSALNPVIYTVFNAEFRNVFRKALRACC
Put plainly: In vitro binding affinity at human cloned Dopamine receptor D4.2 by [3H]YM-09151-2 displacement.
The term IC50 denotes the concentration that inhibits the measured activity by half. High values mean a need for much substance, low ones inhibition by little substance. `COc1cccc(C(=O)NCCN2CCN(c3ccc(Cl)cc3)CC2)c1` yielded an IC50 of 0.057 nM.
On the same count and under the same terms, the result for `COc1cccc(C(=O)NCCN2CCN(Cc3ccccc3OC)CC2)c1` reads 30 nM; that for `COc1ccccc1C(=O)NCCN1CCN(c2ccccc2OC)CC1`, 4 nM.
On the same count and under the same terms, with `COc1cccc(C(=O)CCCN2CCN(c3ccccc3OC)CC2)c1` the figure was 3.1 nM; with `COc1ccccc1N1CCN(CCC(=O)NC2CCc3c(cccc3OC)C2)CC1` (stereo not given), 120 nM; with `COc1ccccc1N1CCN(CC(=O)NC2CCc3c(cccc3OC)C2)CC1` (stereo not given), 850 nM.
As to `COc1cccc(-c2csc(CN3CCN(c4ccccc4OC)CC3)n2)c1`, the IC50 came to 740 nM.
On the same count and under the same terms, with `COc1cccc(C(=O)NCCN2CCN(Cc3ccc(Cl)cc3)CC2)c1` the figure was 70 nM.
`COc1ccc2c(c1)C(CCCN1CCN(c3ccccc3OC)CC1)CCC2` (stereo not given) displayed an IC50 of 280 nM.
In turn, `COc1ccc2c(c1)CC(NC(=O)CN1CCN(c3ccccc3OC)CC1)CC2` (stereo not given) came in with an IC50 of 470 nM.
The same measure, in the same setting: with `COc1ccc(OC)c(C(=O)NCCN2CCN(c3ccccc3OC)CC2)c1` the figure was 7.8 nM.

The next experiment has as its target T2, 5-hydroxytryptamine receptor 1A (Rattus norvegicus, UniProt P19327).
T2 sequence (P19327 whole entry): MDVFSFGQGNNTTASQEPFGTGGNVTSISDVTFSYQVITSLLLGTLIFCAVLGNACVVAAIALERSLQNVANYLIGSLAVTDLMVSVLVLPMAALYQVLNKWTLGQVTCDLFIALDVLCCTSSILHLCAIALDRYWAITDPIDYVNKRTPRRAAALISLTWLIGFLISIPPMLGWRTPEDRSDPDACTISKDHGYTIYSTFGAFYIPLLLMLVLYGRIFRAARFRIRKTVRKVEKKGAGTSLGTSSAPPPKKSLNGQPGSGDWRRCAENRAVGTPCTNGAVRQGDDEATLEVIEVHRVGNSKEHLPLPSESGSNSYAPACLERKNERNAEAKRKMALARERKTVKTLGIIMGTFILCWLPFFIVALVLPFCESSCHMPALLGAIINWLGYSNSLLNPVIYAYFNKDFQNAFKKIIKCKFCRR
Put plainly: Binding affinity was measured at the serotonin 5-hydroxytryptamine 1A receptor using [3H]8-OH-DPAT as radioligand in rat hippocampal membrane. It is filed as cell membranes, Hippocampus.
For the molecule `COc1cccc(C(=O)NCCN2CCN(c3ccc(Cl)cc3)CC2)c1`, the IC50 turned out to be 220 nM.

Another experiment has as its target T1, D(4) dopamine receptor. The experiment can be described thus: In vitro binding affinity was measured at the cloned human Dopamine receptor D4.2 using [3H]YM-09151-2 as radioligand.
For orientation: Ki means the dissociation constant of the complex between target and ligand, obtained from inhibition or displacement. Low readings indicate a stronger hold on the target, high ones a looser hold on the target. For `COc1ccccc1N1CCN(Cc2ccn(-c3ccccc3)c2)CC1`, the Ki worked out at 0.7 nM. This lies in the sub-nanomolar range.
Molecule `COc1ccccc1N1CCN(CCNC2=Nc3ccccc3OC2)CC1` had a Ki of 3 nM.

Another experiment concerns the target T3, Adrenergic receptor alpha-1 (Rattus norvegicus, UniProt P15823+P23944+P43140).
T3 sequence (P15823 whole entry): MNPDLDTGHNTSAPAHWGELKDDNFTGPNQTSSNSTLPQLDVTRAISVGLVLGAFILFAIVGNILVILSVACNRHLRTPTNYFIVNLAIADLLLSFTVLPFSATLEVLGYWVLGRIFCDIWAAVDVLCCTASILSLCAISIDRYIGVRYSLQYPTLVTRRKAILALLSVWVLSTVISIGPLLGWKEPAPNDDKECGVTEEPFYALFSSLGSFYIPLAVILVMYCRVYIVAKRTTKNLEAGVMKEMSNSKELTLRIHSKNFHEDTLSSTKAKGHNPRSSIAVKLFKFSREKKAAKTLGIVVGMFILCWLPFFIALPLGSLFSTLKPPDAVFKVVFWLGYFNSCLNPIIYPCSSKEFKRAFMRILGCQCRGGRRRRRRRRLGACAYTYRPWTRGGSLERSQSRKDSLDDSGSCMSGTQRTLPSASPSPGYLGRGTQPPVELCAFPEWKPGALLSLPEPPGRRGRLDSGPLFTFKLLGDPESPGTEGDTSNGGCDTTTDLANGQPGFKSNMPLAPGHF
T3 sequence (P23944 whole entry): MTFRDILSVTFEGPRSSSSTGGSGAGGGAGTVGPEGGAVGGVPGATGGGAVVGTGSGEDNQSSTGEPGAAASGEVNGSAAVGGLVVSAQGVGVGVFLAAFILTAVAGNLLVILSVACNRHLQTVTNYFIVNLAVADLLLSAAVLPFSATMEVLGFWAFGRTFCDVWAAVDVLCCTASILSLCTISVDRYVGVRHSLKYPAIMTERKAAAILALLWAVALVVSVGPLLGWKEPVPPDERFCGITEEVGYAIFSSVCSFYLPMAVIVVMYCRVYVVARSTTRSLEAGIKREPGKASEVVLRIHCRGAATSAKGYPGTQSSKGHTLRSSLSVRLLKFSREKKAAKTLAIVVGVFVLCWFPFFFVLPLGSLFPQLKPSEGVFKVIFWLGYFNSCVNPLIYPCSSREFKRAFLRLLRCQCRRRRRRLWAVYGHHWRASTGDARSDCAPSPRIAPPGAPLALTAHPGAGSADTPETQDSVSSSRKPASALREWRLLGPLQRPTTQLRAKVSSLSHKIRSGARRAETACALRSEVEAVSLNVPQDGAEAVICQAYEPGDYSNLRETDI
T3 sequence (P43140 whole entry): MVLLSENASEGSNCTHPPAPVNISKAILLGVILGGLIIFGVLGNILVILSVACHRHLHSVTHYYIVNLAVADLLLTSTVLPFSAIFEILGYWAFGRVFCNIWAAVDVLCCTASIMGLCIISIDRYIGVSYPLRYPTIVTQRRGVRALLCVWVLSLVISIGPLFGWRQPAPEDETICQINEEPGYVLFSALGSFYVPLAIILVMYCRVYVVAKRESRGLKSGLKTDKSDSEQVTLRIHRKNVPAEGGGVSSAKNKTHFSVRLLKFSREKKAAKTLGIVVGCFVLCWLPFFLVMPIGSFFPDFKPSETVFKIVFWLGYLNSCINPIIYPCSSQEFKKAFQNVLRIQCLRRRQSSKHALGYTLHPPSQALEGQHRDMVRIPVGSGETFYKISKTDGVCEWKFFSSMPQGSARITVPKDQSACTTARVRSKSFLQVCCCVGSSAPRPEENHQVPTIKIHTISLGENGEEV
Put plainly: Binding affinity was measured at the Alpha-1 adrenergic receptor using [3H]prazosin as radioligand in rat brain cortex membrane. It is filed as cell membranes.
`COc1cccc(C(=O)NCCN2CCN(c3ccc(Cl)cc3)CC2)c1` came in with an IC50 of 270 nM.
